Results as given in patent US12421276B2 (priority 2016, dated 2025).
“And” between values parts separate entries of the source, which are not always exact repeats. Equal entries are not always repeated. Where two headings read alike, the source gives them in different places.

Columns and labels:
[1] = Plasma stability study, rat plasma; type: in vitro ADME; conditions: rat, plasma
Method: (§1) Human and rat plasma (K2 EDTA) were obtained from Bioreclamation.
(§2) Compounds were dissolved as 0.3 mM DMSO stocks. Compounds were transferred to the plasma at 1 μM on a 96-well deep well plate. After mixing, samples were transferred to several 96-well plates (25 μL/well), and incubated at 37° C. The extent of metabolism was calculated as the disappearance of the test compound, compared to the 0-min control reaction incubations. Propantheline was included as a positive control to verify assay performance.
(§3) At each of the time points, 150 μL of quench solution (50% acetonitrile, 50% methanol with 0.05% formic acid) with internal standard (bucetin for positive ESI mode and warfarin for negative ESI mode) was transferred to each well. Plates were sealed and centrifuged at 4° C. for 15 minutes at 4000 rpm. The supernatant was transferred to fresh plates for LC/MS/MS analysis.
(§4) Elution conditions are detailed in the table below.
(§5) Initial rates of the clearance of test compounds were calculated using linear regression of semi-log plot of % remaining of compounds versus time. The elimination rate constant (equals to −slope) of the linear regression was then used to determine t½ values.

Caco-2 cells = assay: Caco-2 permeability study with or without P-gp inhibitor GF120918; conditions: for Abs. Quotient: (Papp A-B with inhibitor − without inhibitor)/Papp A-B with inhibitor; for Caco-2 Cells Permeability Recovery Rate: 1 hr, pH 7.4
Method: Buffer=HBSS, pH 7.4 with 5 mM HEPES
Caco-2 cell plates were obtained commercially and were maintained for 21 days at 37° C. with 5% CO2. Cells were washed with Hank's Balanced Salt Solution (HBSS) 30 min before starting the experiment. Test compound solutions were prepared by diluting from DMSO stock into HBSS buffer in the presence or absence of 10 μM of P-gp inhibitor GF120918. The final DMSO concentration is 0.2%. Prior to each experiment, cell monolayer integrity was verified by transendothelial electrical resistance (TEER). Transport experiment was initiated by adding test compounds to the apical (75 μL) side. Transport plates were incubated at 37° C. in a humidified incubator with 5% CO2. Samples were taken from the donor and acceptor compartments after 1 hr and analyzed by liquid chromatography with tandem mass spectrometry (LC/MS/MS).
Apparent permeability (Papp) values were calculated using the following equation: Papp=(dQ/dt)/A/C0
where dQ/dt is the initial rate of amount of test compound transported across cell monolayer, A is the surface area of the filter membrane, and C0 is the initial concentration of the test compound. C0 is calculated for each condition using a 4-point calibration curve.
Absorption quotient between the two assay conditions was calculated by the following equation:
Absorption quotient (AQ)=(Papp, A-B with inhibitor−Papp, A-B without inhibitor)/Papp, A-B with inhibitor where Papp, A-B with inhibitor and Papp, A-B without inhibitor represent the apparent permeability of test compound from the apical to basal side of the cellular monolayer in the presence and absence of 10 μM P-gp inhibitor GF120918, respectively.
All samples were analyzed on LC/MS/MS using an AB Sciex API 4000 instrument, coupled to a Shimadzu LC-20AD LC Pump system. Analytical samples were separated using a Waters Atlantis T3 dC18 reverse phase HPLC column (10 mm×2.1 mm) at a flow rate of 0.5 mL/min. The mobile phase consisted of 0.1% formic acid in water (solvent A) and 0.1% formic acid in acetonitrile (solvent B).

[2] = Plasma stability study, human plasma; type: in vitro ADME; conditions: human, plasma
Method: as §1, §2, §3, §4, §5

[3] = Metabolic stability in simulated intestinal fluid (SIF), pH 6.8, with or without pancreatin; type: in vitro ADME; conditions: 5 μM, 37° C.
Method: (§6) Metabolic Stability in SIF and SGF (Simulated Intestinal and Gastric Fluid)
Buffer 3=SIF without enzyme
Buffer 4=SIF with 1% pancreatin
(§7) SIF was prepared freshly with 8.7 mM NaOH, 28.65 mM NaH2PO4, 105.85 mM NaCl, with a final pH of 6.8. SGF was prepared freshly with 34.2 mM NaCl, with a final pH of 1.2. Enzymes such as pepsin or pancreatin were added to some buffers. Human and rat plasma (K2 EDTA) were purchased from BioreclamationIVT.
(§8) Compounds were dissolved as 1.5 mM DMSO stocks. Compounds were transferred to SIF, SGF, or plasma at 5 μM on a 96-well deep well plate. After mixing, samples were transferred to several 96-well plates (25 μL/well), and incubated at 37° C. The extent of metabolism was calculated as the disappearance of the test compound, compared to the 0-min control reaction incubations. Candesartan Cilexetil and omeprazole were included as positive controls for SIF and SGF, respectively, to verify assay performance.
as §3, with “(100% acetonitrile” for “(50% acetonitrile, 50% methanol”, “0.1%” for “0.05%”
as §4, §5

[4] = Metabolic stability in simulated gastric fluid (SGF), pH 1.2, with or without pepsin; type: in vitro ADME; conditions: 5 μM, 37° C.
Method: as §6
Buffer 1=SGF without enzyme
Buffer 2=SGF with 0.32% pepsin
as §7, §8
as §3, with “(100% acetonitrile” for “(50% acetonitrile, 50% methanol”, “0.1%” for “0.05%”
as §4, §5

[5] = type: in vivo, rat
Method: • 1. Eight (8) male JVC SD rats (purchased from Charles River Lab) were monitored daily for body condition and health status during the 3-5 days acclimation period. The rats were randomly assigned into […] (n=4). • 2. […] The dosed rats were individually placed into a metabolic cage, and have access to food and water at all times. The urine from each rat was collected daily from the metabolic cages, and kept in dry ice. • 4. At predose (0 min), 5 min, 15 min, 30 min, 1 hr, 2 hr, 8 hr, and 24 hr post dosing, approximately 200 ul blood samples were collected from each rat and transferred to EDTA tubes. • 5. The blood samples in EDTA vials were centrifuged at 4° C. and 6,000 rpm for 10 minutes to generate ˜100 μl of plasma per sample. Blood samples were processed as quickly as possible and remain no longer than 2 min at room temperature and no longer than 15 minutes at 4° C. prior to processing. • 6. All samples were transferred for bioanalytic assay using LCMS

[6] = +GF120918 (10 μM), 10 μM compound
[7] = Rat, PO, 10 mg/kg equiv., n = 4, analyte: Parent (BASE STRUCTURE)
[8] = Rat, PO, 10 mg/kg equiv., n = 4, analyte: Prodrug
[9] = rat, dosed as prodrug, 10 mg/kg equivalent of Base Structure, analyte Parent (Base Structure), Average
[10] = rat, dosed as prodrug, 10 mg/kg equivalent of Base Structure, analyte Parent (Base Structure), Combined (average ± std. dev.)
[11] = rat, dosed as prodrug, 10 mg/kg equivalent of Base Structure, analyte Parent (Base Structure), individual animals, 10 mg/kg
[12] = rat, dosed as prodrug, 10 mg/kg equivalent of Base Structure, analyte Prodrug, Average
[13] = rat, dosed as prodrug, 10 mg/kg equivalent of Base Structure, analyte Prodrug, Combined (average ± std. dev.)
[14] = rat, dosed as prodrug, 10 mg/kg equivalent of Base Structure, analyte Prodrug, individual animals, 10 mg/kg

SMILES: CCCCCC(=O)NC(Cc1ccc(OC(=O)CN2CCOCC2)cc1)C(=O)NC(C(=O)NCCCCCC(N)=O)C(C)CC (centres unmarked) [Compound A23]
- Plasma Stability Half-Life [1]: 8.2 min
- Abs. Quotient (Caco-2 cells): 0.78
- Caco-2 Cells Permeability Recovery Rate (Caco-2 cells; [6]): 96%
- Caco-2 Cells Permeability Recovery Rate (Caco-2 cells; −GF120918, 10 μM compound): 91%
- Plasma Stability Half-Life [2]: 0.522 h

SMILES: CCCCCC(=O)NC(Cc1ccc(OC(=O)CN2CCN(C)CC2)cc1)C(=O)NC(C(=O)NCCCCCC(N)=O)C(C)CC (centres unmarked) [Compound A22]
- Plasma Stability Half-Life [1]: 8.7 min
- Abs. Quotient (Caco-2 cells): 0.78
- Caco-2 Cells Permeability Recovery Rate (Caco-2 cells; [6]): 104%
- Caco-2 Cells Permeability Recovery Rate (Caco-2 cells; −GF120918, 10 μM compound): 107%
- Plasma Stability Half-Life [2]: 1.46 h

SMILES: CCCCCC(=O)NC(Cc1ccc(OP(=O)(OCCN(C)C)OCCN(C)C)cc1)C(=O)NC(C(=O)NCCCCCC(N)=O)C(C)CC (centres unmarked) [Compound A18]
- SIF Stability (pH 6.8) Half-Life (min) ([3]; +Pancreatin (1%)): 39.4 min
- SIF Stability (pH 6.8) 0 min ([3]; +Pancreatin (1%)): 100%
- SIF Stability (pH 6.8) 60 min ([3]; +Pancreatin (1%)): 40%
- SIF Stability (pH 6.8) 120 min ([3]; +Pancreatin (1%)): 12%
- SIF Stability (pH 6.8) 240 min ([3]; +Pancreatin (1%)): 25%
- SIF Stability (pH 6.8) Half-Life (min) ([3]; −Pancreatin): 30.2 min
- SIF Stability (pH 6.8) 0 min ([3]; −Pancreatin): 100%
- SIF Stability (pH 6.8) 60 min ([3]; −Pancreatin): 25%
- SIF Stability (pH 6.8) 120 min ([3]; −Pancreatin): 17%
- SIF Stability (pH 6.8) 240 min ([3]; −Pancreatin): 8%
- SGF Stability (pH 1.2) Half-Life (min) ([4]; +Pepsin (0.32%)): 46.4 min
- SGF Stability (pH 1.2) 0 min ([4]; +Pepsin (0.32%)): 100%
- SGF Stability (pH 1.2) 60 min ([4]; +Pepsin (0.32%)): 52%
- SGF Stability (pH 1.2) 120 min ([4]; +Pepsin (0.32%)): 17%
- SGF Stability (pH 1.2) 240 min ([4]; +Pepsin (0.32%)): 18%
- SGF Stability (pH 1.2) Half-Life (min) ([4]; −Pepsin): 42.6 min
- SGF Stability (pH 1.2) 0 min ([4]; −Pepsin): 100%
- SGF Stability (pH 1.2) 60 min ([4]; −Pepsin): 51%
- SGF Stability (pH 1.2) 120 min ([4]; −Pepsin): 14%
- SGF Stability (pH 1.2) 240 min ([4]; −Pepsin): 15%
- Abs. Quotient (Caco-2 cells): 0.54
- Caco-2 Cells Permeability Recovery Rate (Caco-2 cells; [6]): 90%
- Caco-2 Cells Permeability Recovery Rate (Caco-2 cells; −GF120918, 10 μM compound): 48%
- AUC0-24 [5, 7]: 4.1 ± 3.8 ng·h/mL
- AUC0-inf (ng · h/mL) [5, 7]: 6.8 ± 4^ ng · h/mL
- Cmax [5, 7]: 3.1 ± 2.5 ng/mL
- Tmax [5, 7]: 0.2 ± 0.1 h
- half-life [5, 7]: 3.5 ± 2.6 h
- AUC0-24 [5, 8]: 4.9 ± 2.6 ng·h/mL
- Cmax [5, 8]: 3.8 ± 0.1 ng/mL
- Tmax [5, 8]: 1.5 ± 0.7 h
- AUC 0-inf_obs [5, 9]: 6.838 ng·h/mL
- AUC 0-t [5, 9]: 4.14 ng·h/mL
- AUMC 0-inf_obs [5, 9]: 46.7 ng/ml * h^2
- Cl/F_obs [5, 9]: 1.944 (mg/kg)/(ng/ml)/h
- Cmax [5, 9]: 3.14 ng/mL
- Lambda_z [5, 9]: 0.523 h⁻¹
- MRT 0-inf_obs [5, 9]: 5.185 h
- Tlag [5, 9]: 0 h
- Tmax [5, 9]: 0.165 h
- Vz/F_obs [5, 9]: 6.707 (mg/kg)/(ng/ml)
- t1/2 [5, 9]: 3.49 h
- AUC 0-inf_obs [5, 10]: 6.8 ± 4 ng·h/mL
- AUC 0-t [5, 10]: 4.1 ± 3.8 ng·h/mL
- AUMC 0-inf_obs [5, 10]: 46.7 ± 47.2 ng/ml * h^2
- Cl/F_obs [5, 10]: 1.9 ± 1.1 (mg/kg)/(ng/ml)/h
- Cmax [5, 10]: 3.1 ± 2.5 ng/mL
- Lambda_z [5, 10]: 0.5 ± 0.7 h⁻¹
- MRT 0-inf_obs [5, 10]: 5.2 ± 3.9 h
- Tlag [5, 10]: 0 ± 0 h
- Tmax [5, 10]: 0.2 ± 0.1 h
- Vz/F_obs [5, 10]: 6.7 ± 3.2 (mg/kg)/(ng/ml)
- t1/2 [5, 10]: 3.5 ± 2.6 h
- Tlag ([5]; rat, dosed as prodrug, 10 mg/kg equivalent of Base Structure, analyte Parent (Base Structure), individual animals): 0 h
- AUC 0-inf_obs [5, 11]: 3.49 ng·h/mL and 3.404 ng·h/mL and 9.232 ng·h/mL and 11.23 ng·h/mL
- AUC 0-t [5, 11]: 1.664 ng·h/mL and 3.218 ng·h/mL and 1.903 ng·h/mL and 9.777 ng·h/mL
- AUMC 0-inf_obs [5, 11]: 10.68 ng/ml * h^2 and 2.586 ng/ml * h^2 and 76.05 ng/ml * h^2 and 97.48 ng/ml * h^2
- Cl/F_obs [5, 11]: 2.866 (mg/kg)/(ng/ml)/h and 2.938 (mg/kg)/(ng/ml)/h and 1.083 (mg/kg)/(ng/ml)/h and 0.8908 (mg/kg)/(ng/ml)/h
- Cmax [5, 11]: 1.3 ng/mL and 3.37 ng/mL and 1.27 ng/mL and 6.62 ng/mL
- Lambda_z [5, 11]: 0.3303 h⁻¹ and 1.518 h⁻¹ and 0.1231 h⁻¹ and 0.1201 h⁻¹
- MRT 0-inf_obs [5, 11]: 3.06 h and 0.7598 h and 8.238 h and 8.683 h
- Tmax [5, 11]: 0.25 h (2×) and 0.08 h (2×)
- Vz/F_obs [5, 11]: 8.676 (mg/kg)/(ng/ml) and 1.935 (mg/kg)/(ng/ml) and 8.802 (mg/kg)/(ng/ml) and 7.417 (mg/kg)/(ng/ml)
- t1/2 [5, 11]: 2.099 h and 0.4565 h and 5.632 h and 5.771 h
- AUC 0-t [5, 12]: 4.949 ng·h/mL
- Cmax [5, 12]: 3.76 ng/mL
- Tlag [5, 12]: 0 h
- Tmax [5, 12]: 1.5 h
- AUC 0-t [5, 13]: 4.9 ± 2.6 ng·h/mL
- Cmax [5, 13]: 3.8 ± 0.1 ng/mL
- Tlag [5, 13]: 0 ± 0 h
- Tmax [5, 13]: 1.5 ± 0.7 h
- Tlag ([5]; rat, dosed as prodrug, 10 mg/kg equivalent of Base Structure, analyte Prodrug, individual animals): 0 h
- AUC 0-t [5, 14]: 6.8 ng·h/mL and 3.099 ng·h/mL
- Cmax [5, 14]: 3.84 ng/mL and 3.68 ng/mL
- Tmax [5, 14]: 2 h and 1 h
